Reference: article PMC6979384, “Characterization of the plant homeodomain (PHD) reader family for their histone tail interactions” (Epigenetics & Chromatin, 2020)

What was measured:
Assay in all cases: Histone peptide microarray
Type in all cases: binding, human
Conditions in all cases: histone peptide array, arrays performed twice, n of 4
AIRE (PP) = system: AIRE (PP)
Procedure, shortened: (§1)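 Readout is array binding signal, reported as the mean and standard deviation over four replicates. Each purified GST-fused PHD domain was incubated at 0.5 μM with a library of 293 modified histone peptides.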

BAZ2B = system: BAZ2B
Procedure, shortened: as §1

BPTF (PB) = system: BPTF (PB)
Procedure, shortened: as §1

CHD4 (PPCC) = system: CHD4 (PPCC)
Procedure, shortened: as §1

CHD5 (PCC) = system: CHD5 (PCC)
Procedure, shortened: as §1

CHD5 (PPCC) = system: CHD5 (PPCC)
Procedure, shortened: as §1

DIDO1 = system: DIDO1
Procedure, shortened: as §1

DPF2 (PPC2W2) = system: DPF2 (PPC2W2)
Procedure, shortened: as §1

ING1 = system: ING1
Procedure, shortened: as §1

ING2 = system: ING2
Procedure, shortened: as §1

ING3 = system: ING3
Procedure, shortened: as §1

ING4 = system: ING4
Procedure, shortened: as §1

ING5 = system: ING5
Procedure, shortened: as §1

KDM4C (TTP) = system: KDM4C (TTP)
Procedure, shortened: as §1

KDM5A (1) = system: KDM5A (1)
Procedure, shortened: as §1

KDM5A (3) = system: KDM5A (3)
Procedure, shortened: as §1

KDM5B (1) = system: KDM5B (1)
Procedure, shortened: as §1

KDM5B (3) = system: KDM5B (3)
Procedure, shortened: as §1

KDM7A = system: KDM7A
Procedure, shortened: as §1

MLL5 = system: MLL5
Procedure, shortened: as §1

MORC3 (CW) = system: MORC3 (CW)
Procedure, shortened: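 Purified PHD finger domains fused to GST are screened against 293 synthetic histone peptides bearing one or several post-translational modifications. The protein is used at 0.5 μM, and the signal from four replicate arrays is averaged, with standard deviation given.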

PHF13 = system: PHF13
Procedure, shortened: as §1

PHF21A = system: PHF21A
Procedure, shortened: as §1

PHF23 = system: PHF23
Procedure, shortened: as §1

PHF2 = system: PHF2
Procedure, shortened: as §1

PHF8 = system: PHF8
Procedure, shortened: as §1

PHRF1 (RP) = system: PHRF1 (RP)
Procedure, shortened: as §1

RAG2 = system: RAG2
Procedure, shortened: as §1

SP140L = system: SP140L
Procedure, shortened: as §1

TAF3 = system: TAF3
Procedure, shortened: as §1

TRIM66 (PB) = system: TRIM66 (PB)
Procedure, shortened: as §1

[1] = GST-tagged reader, PB = PHD + Bromodomain
[2] = GST-tagged reader, PPCC = Dual PHD + Dual Chromodomain

H3 (15-34)K27ac: H3 15-34
Array Heatmap signal, AIRE (PP) (AIRE (PP); GST-tagged reader): 0.5038 | Array Heatmap signal, BAZ2B (BAZ2B; GST-tagged reader): 0.4845 | Array Heatmap signal, BPTF (PB) (BPTF (PB); [1]): 0.3592 | Array Heatmap signal, CHD4 (PPCC) (CHD4 (PPCC); [2]): 0.5674 | Array Heatmap signal, CHD5 (PCC) (CHD5 (PCC); GST-tagged reader, PCC = PHD + Dual Chromodomain): 0.7622 | Array Heatmap signal, CHD5 (PPCC) (CHD5 (PPCC); [2]): 0.5983 | Array Heatmap signal, DIDO1 (DIDO1; GST-tagged reader): 0.6571 | Array Heatmap signal, DPF2 (PPC2W2) (DPF2 (PPC2W2); GST-tagged reader, PPC2W2 = Dual PHD + C2W2-type Zn-finger): 0.642 | Array Heatmap signal, ING1 (ING1; GST-tagged reader): 0.5528 | Array Heatmap signal, ING2 (ING2; GST-tagged reader): 0.5993 | Array Heatmap signal, ING3 (ING3; GST-tagged reader): 0.5008 | Array Heatmap signal, ING4 (ING4; GST-tagged reader): 0.4806 | Array Heatmap signal, ING5 (ING5; GST-tagged reader): 0.3933 | Array Heatmap signal, KDM4C (TTP) (KDM4C (TTP); GST-tagged reader, TTP = Tandem Tudor domain + PHD): 0.5365 | Array Heatmap signal, KDM5A (1) (KDM5A (1); GST-tagged reader): 0.5009 | Array Heatmap signal, KDM5A (3) (KDM5A (3); GST-tagged reader): 0.4223 | Array Heatmap signal, KDM5B (1) (KDM5B (1); GST-tagged reader): 0.6588 | Array Heatmap signal, KDM5B (3) (KDM5B (3); GST-tagged reader): 0.4788 | Array Heatmap signal, KDM7A (KDM7A; GST-tagged reader): 0.3922 | Array Heatmap signal, MLL5 (MLL5; GST-tagged reader): 0.5399 | Array Heatmap signal, MORC3 (CW) (MORC3 (CW); GST-tagged reader, CW = CW-type Zn-finger): 0.3756 | Array Heatmap signal, PHF13 (PHF13; GST-tagged reader): 0.6352 | Array Heatmap signal, PHF21A (PHF21A; GST-tagged reader): 0.4777 | Array Heatmap signal, PHF23 (PHF23; GST-tagged reader): 0.5579 | Array Heatmap signal, PHF2 (PHF2; GST-tagged reader): 0.4814 | Array Heatmap signal, PHF8 (PHF8; GST-tagged reader): 0.3727 | Array Heatmap signal, PHRF1 (RP) (PHRF1 (RP); GST-tagged reader): 0.4538 | Array Heatmap signal, RAG2 (RAG2; GST-tagged reader): 0.2665 | Array Heatmap signal, SP140L (SP140L; GST-tagged reader): 0.3795 | Array Heatmap signal, TAF3 (TAF3; GST-tagged reader): 0.268 | Array Heatmap signal, TRIM66 (PB) (TRIM66 (PB); [1]): 0.5567

H4K5ac + K8ac + K12ac + K16ac: H4 1-23
Array Heatmap signal, AIRE (PP) (AIRE (PP); GST-tagged AIRE (PP)): 0.5646 | Array Heatmap signal, BAZ2B (BAZ2B; GST-tagged BAZ2B): 0.5369 | Array Heatmap signal, BPTF (PB) (BPTF (PB); GST-tagged BPTF (PB = PHD + Bromodomain)): 0.4178 | Array Heatmap signal, CHD4 (PPCC) (CHD4 (PPCC); GST-tagged CHD4 (PPCC = Dual PHD + Dual Chromodomain)): 0.5585 | Array Heatmap signal, CHD5 (PCC) (CHD5 (PCC); GST-tagged CHD5 (PCC = PHD + Dual Chromodomain)): 0.8346 | Array Heatmap signal, CHD5 (PPCC) (CHD5 (PPCC); GST-tagged CHD5 (PPCC = Dual PHD + Dual Chromodomain)): 0.5534 | Array Heatmap signal, DIDO1 (DIDO1; GST-tagged DIDO1): 0.6106 | Array Heatmap signal, DPF2 (PPC2W2) (DPF2 (PPC2W2); GST-tagged DPF2 (PPC2W2 = Dual PHD + C2W2-type Zn-finger)): 0.6508 | Array Heatmap signal, ING1 (ING1; GST-tagged ING1): 0.4878 | Array Heatmap signal, ING2 (ING2; GST-tagged ING2): 0.572 | Array Heatmap signal, ING3 (ING3; GST-tagged ING3): 0.4391 | Array Heatmap signal, ING4 (ING4; GST-tagged ING4): 0.4555 | Array Heatmap signal, ING5 (ING5; GST-tagged ING5): 0.371 | Array Heatmap signal, KDM4C (TTP) (KDM4C (TTP); GST-tagged KDM4C (TTP = Tandem Tudor domain + PHD)): 0.5368 | Array Heatmap signal, KDM5A (1) (KDM5A (1); GST-tagged KDM5A (1)): 0.4894 | Array Heatmap signal, KDM5A (3) (KDM5A (3); GST-tagged KDM5A (3)): 0.4106 | Array Heatmap signal, KDM5B (1) (KDM5B (1); GST-tagged KDM5B (1)): 0.7197 | Array Heatmap signal, KDM5B (3) (KDM5B (3); GST-tagged KDM5B (3)): 0.5025 | Array Heatmap signal, KDM7A (KDM7A; GST-tagged KDM7A): 0.4726 | Array Heatmap signal, MLL5 (MLL5; GST-tagged MLL5): 0.5322 | Array Heatmap signal, MORC3 (CW) (MORC3 (CW); GST-tagged MORC3 (CW = CW-type Zn-finger)): 0.3746 | Array Heatmap signal, PHF13 (PHF13; GST-tagged PHF13): 0.598 | Array Heatmap signal, PHF21A (PHF21A; GST-tagged PHF21A): 0.4657 | Array Heatmap signal, PHF23 (PHF23; GST-tagged PHF23): 0.4802 | Array Heatmap signal, PHF2 (PHF2; GST-tagged PHF2): 0.443 | Array Heatmap signal, PHF8 (PHF8; GST-tagged PHF8): 0.3604 | Array Heatmap signal, PHRF1 (RP) (PHRF1 (RP); GST-tagged PHRF1 (RP)): 0.436 | Array Heatmap signal, RAG2 (RAG2; GST-tagged RAG2): 0.2398 | Array Heatmap signal, SP140L (SP140L; GST-tagged SP140L): 0.3494 | Array Heatmap signal, TAF3 (TAF3; GST-tagged TAF3): 0.2729 | Array Heatmap signal, TRIM66 (PB) (TRIM66 (PB); GST-tagged TRIM66 (PB = PHD + Bromodomain)): 0.6818
